Reference: US20060121112A1, “Topiramate pharmaceutical composition” (Elan Corporation, plc, priority 2004, published 2006)
Where a name gives a salt, the structure may show the parent alone. Read-outs that look alike come from different tables or passages of the source. Marks after values point to notes of the source that are not given here.

Assays:
[1] = cited from earlier work
[2] = cited from earlier work; remark: listed apart in the source
[3] = Pharmacoscintigraphy regional absorption biostudy with Enterion site-specific delivery capsule, topiramate plasma concentrations; format: in vivo, human; details: for Relative Bioavailability (%) Based on AUCinf: 200 mg topiramate API, Enterion capsule, healthy volunteers; for Relative Bioavailability (%) Based on AUCinf / Relative Bioavailability (%) Based on AUClast: vs Trt A; for Lambda / tmax / Relative Bioavailability (%) Based on AUClast / AUCinf / Cmax / half-life / AUC(0-inf) / AUC(0-t): 200 mg; for half-life: read-out: t½ (converted)
Protocol: A rational approach to obtain detailed information about how well topiramate is absorbed from the key residence areas of the gastrointestinal tract was conducted using the Enterion® site-specific delivery capsule, which is the subject of U.S. Pat. No. 6,632,216 which is incorporated herein by reference. The Enterion® site-specific delivery capsule is an easy to use non-invasive methodology for assessing regional drug absorption from the gastrointestinal tract. The capsule is 35mm in length and 10-12 mm in diameter and is capable of delivering solutions, suspensions or powders to specific sites. […] The capsules contain a drug chamber with a wide port, and therefore loading of all types of drug formulations into the capsule is relatively straightforward. Capsule activation is confirmed by means of a signal, which is emitted from the capsule when activation occurs and is relayed back to the activation unit.
A pharmacoscintigraphy study of topiramate was conducted at Pharmaceutical Profiles, Nottingham, UK utilizing their Enterion® site-specific delivery capsule technology. This study was designed to obtain detailed information about how well topiramate is absorbed from the key residence areas of the gastrointestinal tract. The examples below are a result of a biostudy that was a randomized, 4-treatment, 4-period study, conducted in 12 healthy volunteers. The test treatments administered using an Enterion® capsule and were as follows: Trt B represents 200 mg topiramate API delivered to the proximal small bowel (PSB), Trt C represents 200 mg topiramate API delivered to the distal small bowel (DSB), Trt D represents 200 mg topiramate API delivered to the colon. The reference treatment administered was Trt A which represents 200 mg topiramate as the commercial immediate release reference formulation, Topamax™. Topiramate plasma concentrations were measured in this study.
Analysis of plasma samples for topiramate was carried out in accordance with Bioanalytical Services Test Method number TM154. The method involves solid phase extraction of topiramate using Oasis HLB extraction cartridges. Topiramate is analysed using LC-MS/MS.
The standard curves for the analytical runs in the study covered the concentration range of 10-1000 ng/mL with a limit of quantitation of 10 ng/mL. All samples were diluted 1:10 prior to analysis.
The following parameters were derived from the plasma concentration data: individual and mean blood drug concentration levels, individual and mean peak levels, Cmax; individual and mean AUClast and AUCinf; individual and mean time to peak concentration, tmax, relative bioavailability of test compared to alternative formulation, Frel (%).

[4] = Trt B, proximal small bowel (PSB)
[5] = Trt B, proximal small bowel (PSB), plasma
[6] = Trt C, distal small bowel (DSB)
[7] = human, plasma, Trt B, proximal small bowel (PSB)
[8] = human, plasma, Trt C, distal small bowel (DSB)
[9] = human, plasma, other: Enterion capsule, delivered to the colon, Trt D, colon, plasma

**Q.** For CC(C)(N)Cc1ccccc1 [Phentermine hydrochloride, 1,1 -Dimethyl-2-phenethylamine hydrochloride], which solubility ([1]; in chloroform) is on record?
**A.** slightly soluble

**Q.** And the solubility ([1]; in ether)?
**A.** insoluble

**Q.** What about the solubility ([1]; in water and lower alcohols) of the same molecule?
**A.** soluble

**Q.** With CC1(C)O[C@@H]2[C@@H](CO[C@@]3(COS(N)(=O)=O)OC(C)(C)O[C@@H]23)O1 [Topiramate, topiramate] as the molecule, how does the “metabolized in the liver” value ([2]; P-450 microsomal enzyme system) read?
**A.** 15%

**Q.** What about the “time to peak blood levels” value ([2]; following a 400 mg oral dose) of the same molecule?
**A.** about 2 hours

**Q.** And the Plasma protein binding ([2]; in vivo)?
**A.** approximately 15%

**Q.** What about the “excreted unchanged in the urine” value ([2]; in vivo) of the same molecule?
**A.** about 85%

**Q.** And the bioavailability ([2]; oral administration)?
**A.** ~100%

**Q.** And the “Relative Bioavailability (%) Based on AUCinf” value [3, 4]?
**A.** 120.88 ± 20.20 %

**Q.** What about the Lambda [3, 4] of the same molecule?
**A.** 0.02 ± 0.01˜ h^−1

**Q.** What about the tmax [3, 4] of the same molecule?
**A.** 2.08 ± 1.08 h

**Q.** And the “Relative Bioavailability (%) Based on AUClast” value [3, 4]?
**A.** 113.06 ± 19.46 %

**Q.** And the AUCinf [3, 5]?
**A.** 192140.44 ± 33798.87˜ ng/mL · h

**Q.** And the Cmax [3, 5]?
**A.** 5255.66 ± 1870.32 ng/mL

**Q.** And the “Relative Bioavailability (%) Based on AUCinf” value [3, 6]?
**A.** 120.99 ± 25.31$ %

**Q.** And the Lambda [3, 6]?
**A.** 0.03 ± 0.01 h⁻¹

**Q.** What about the tmax [3, 6] of the same molecule?
**A.** 3.64 ± 4.20 h

**Q.** What about the “Relative Bioavailability (%) Based on AUClast” value [3, 6] of the same molecule?
**A.** 125.69 ± 27.18˜ %

**Q.** What about the AUCinf ([3]; Trt C, distal small bowel (DSB), plasma) of the same molecule?
**A.** 193203.21 ± 57012.26 ng·h/mL

**Q.** And the “Relative Bioavailability (%) Based on AUCinf” value ([3]; Trt D, colon)?
**A.** 111.85 ± 19.41^ %

**Q.** What about the Lambda ([3]; Trt D, colon) of the same molecule?
**A.** 0.03 ± 0.01* h^−1

**Q.** What about the tmax ([3]; Trt D, colon) of the same molecule?
**A.** 11.85 ± 7.44 h

**Q.** And the “Relative Bioavailability (%) Based on AUClast” value ([3]; Trt D, colon)?
**A.** 107.14 ± 22.73˜ %

**Q.** What about the AUCinf ([3]; Trt D, colon, plasma) of the same molecule?
**A.** 181462.53 ± 46104.28 ng·h/mL

**Q.** What about the Cmax ([3]; Trt D, colon, plasma) of the same molecule?
**A.** 3878.07 ± 1267.71 ng/mL

**Q.** And the enhanced bioavailability ([3]; administered in the small or large intestine as compared to oral immediate release tablets)?
**A.** approximately 20%

**Q.** And the Cmax ([3]; human, plasma, Trt B, proximal small bowel (PSB), plasma, read-out: Cmax)?
**A.** 5260 ± 1870 ng/mL

**Q.** What about the tmax ([3]; human, plasma, Trt B, proximal small bowel (PSB), read-out: tmax) of the same molecule?
**A.** 2.1 ± 1.1 h

**Q.** And the half-life [3, 7]?
**A.** 32.7 ± 9.7 h

**Q.** What about the AUC(0-inf) [3, 7] of the same molecule?
**A.** 192 ± 33.8 µg·h/mL

**Q.** What about the AUC(0-t) [3, 7] of the same molecule?
**A.** 150 ± 37.9 µg·h/mL

**Q.** And the Cmax ([3]; human, plasma, Trt C, distal small bowel (DSB), plasma, read-out: Cmax)?
**A.** 4970 ± 1200 ng/mL

**Q.** What about the tmax ([3]; human, plasma, Trt C, distal small bowel (DSB), read-out: tmax) of the same molecule?
**A.** 3.6 ± 4.2 h

**Q.** What about the half-life [3, 8] of the same molecule?
**A.** 24.5 ± 6.18 h

**Q.** And the AUC(0-inf) [3, 8]?
**A.** 193 ± 57 µg·h/mL

**Q.** And the AUC(0-t) [3, 8]?
**A.** 160 ± 38.5 µg·h/mL

**Q.** And the AUC(0-inf) [3, 9]?
**A.** 181 ± 46.1 µg·h/mL

**Q.** What about the AUC(0-t) [3, 9] of the same molecule?
**A.** 140 ± 40.7 µg·h/mL

**Q.** And the Cmax ([3]; human, plasma, other: Enterion capsule, delivered to the colon, Trt D, colon, plasma, read-out: Cmax)?
**A.** 3880 ± 1270 ng/mL

**Q.** What about the tmax ([3]; human, plasma, other: Enterion capsule, delivered to the colon, Trt D, colon, read-out: tmax) of the same molecule?
**A.** 11.8 ± 7.4 h

**Q.** And the half-life ([3]; human, plasma, other: Enterion capsule, delivered to the colon, Trt D, colon)?
**A.** 24.9 ± 5.2 h
